Results: patent US12679842B2, “HCK as a therapeutic target in MYD88 mutated diseases” (Dana-Farber Cancer Institute, Inc., priority 2019, dated 2026)

Assays:
[1] = tested on: BTK C481S expressing lentiviral vector transduced TMD8 ABC-DLBCL cells; test: CellTiter-Glo cell viability assay in BTK WT or BTK C481S transduced TMD8 cells; type: cell-based; conditions: MYD88 mutated ABC DLBCL cells (TMD8), 72 hrs, FIG. 4
[2] = tested on: BTK C481S expressing lentiviral vector transduced BCWM.1 WM cells; test: CellTiter-Glo cell viability assay in BTK WT or BTK C481S transduced BCWM.1 cells; type: cell-based; conditions: MYD88 mutated WM cells (BCWM.1), 72 hrs, FIG. 4

CN1CCN(C2CCC(n3nc(-c4ccc(Oc5ccccc5)cc4)c4c(N)nccc43)CC2)CC1 (centres unmarked) [Compound I-4]
drug dose-response in BTK C481S expressing cells (ibrutinib resistance) [1]: overcomes BTKC481S mediated ibrutinib resistance | drug dose-response in BTK C481S expressing cells (ibrutinib resistance) [2]: overcomes BTKC481S mediated ibrutinib resistance
